In patent US20220218678A1, “USE OF 1-PHENYL-2-PYRIDINYL ALKYL ALCOHOL DERIVATIVES FOR TREATING CYSTIC FIBROSIS” (CHIESI FARMACEUTICI S.p.A., priority 2017, published 2022):

What was measured:
CFTR channel = molecular target: T1, CFTR channel (Homo sapiens, UniProt P13569); test: Transepithelial electrical resistance (TEER) assay on 16HBE14o− bronchial epithelial cells; assay type: cell-based; settings: 16HBE14o− cells, 10, 30 and 60 minutes; CHF6001 30 nM, Roflumilast 50 nM
T1 construct: the TEER assay was performed with these agents on 16HBE14o− bronchial epithelial cells (BEC); endogenous in cells; host or cells: 16HBE14o− human bronchial epithelial cell line (provided by P. Davis)

CFTR [1] = test: Immunofluorescence staining of CFTR in CFBE41o− cells; assay type: cell-based, human; settings: CFBE41o− cells treated for 24 h, different concentrations
Protocol: CFBE41o− and 16HBE14o− cells, respectively, were seeded on a glass slide and, after exposure to agent or vehicle, were washed twice with PBS 1× and fixed with paraformaldehyde 4% (PFA) for 30 min and stored in PBS 1× at 4° C. until immunostaining. The fixed cells were washed twice with PBS 1×, and treated for 3 minutes with […] NH4Cl at room temperature in order to quench the aldehyde group. After another washing step, the cells were permeabilized with TRITON X100 0.1% for 5 minutes and were blocked with a solution of 1% BSA for 30 minutes. The anti-CFTR antibody M3A7, raised against an epitope corresponding to residues 1197-1480 of human CFTR (Santa Cruz) was added at 1:100 dilution for 1 hour, then the cells were stained with secondary antibody anti IgG1 488 (1:1000, Santa Cruz) and Rhodamine Phalloidine (1:500) for another hour. Finally, the cells were subjected to DAPI (Sigma Aldrich) staining (1:2000) for 1 hour at RT, then the slides were analyzed by Leica DM6000M microscope with a 40× objective. Images were processed for brightness and contrast with Adobe Photoshop.
FIG. 6: Immunofluorescence staining performed on CFBE41o− cells treated for 24 h with VX809+VX770, CHF6001 and Roflumilast at different concentrations or vehicle (DMSO).

CFTR [2] = molecular target: T2, CFTR (Homo sapiens, UniProt P13569, DEL508-508); test: Western Blot, total presence of CFTR protein in CFBE41o− cells; assay type: cell-based; settings: 24 h exposure, VRT809 5 μM
T2 construct: cells expressing endogenous ΔF508-CFTR; endogenous in cells; host or cells: CFBE41o− human CF bronchial epithelial cell line (gift from D. C. Gruenert), homozygous ΔF508
Protocol: CFBE41o− and 16HBE14o− cells, respectively, were lysed in lysis buffer (50 mmol/L Tris, 150 mmol/L NaCl, 1 mmol/L EDTA, 1% Triton X-100 pH 7.4) containing protease inhibitors (Roche, Inc.). A total of 10 μg (16HBE14o−/CFBE41o−) total protein per lane was separated using 7.5% (v/v) polyacrylamide electrophoresis (PAGE) SDS gels and transferred onto nitro-cellulose membranes, that were probed with a monoclonal anti-CFTR antibody (Cell Signaling 2269; according to information provided by Cell Signaling produced by immunizing rabbits with a synthetic peptide corresponding to amino acid residues near the amino terminus of human CFTR) at a 1:500 dilution, overnight at 4° C. Membranes were re-probed with a monoclonal anti-actin (Sigma-Aldrich) to normalize for protein loading. The relative levels of CFTR were estimated by densitometry using the ImageJ program (http://rsb.info.nih.gov/ij/). The amount of band C (understood to be the fully glycosylated mature form of CFTR)) is calculated as a fraction of actin for the respective lane and reported as a fraction of the total (band C/actin). […] The values reported are expressed as means+/−SD (n=3). Data sets were compared by a t-test using GraphPad Prism. […]
FIG. 5. Presence of CFTR was evaluated by western blotting in human bronchial epithelial cell lines 16HBE14o− (non CF) and CFBE41o− (ΔF508/ΔF508) after 24 h exposure to CFTR corrector VRT809 (5 μM) in comparison with the two compounds CHF6001 and Roflumilast.
Top: average of several experiments; the relative levels of CFTR were estimated by densitometry using the ImageJ program (http://rsb.info.nih.gov/ij/). The native amount of band C is calculated as a fraction of actin for the respective lane and reported as a fraction of the total (band C/actin). The values reported are expressed as means+/−SEM (n=3). […]

T1 sequence (P13569 whole entry): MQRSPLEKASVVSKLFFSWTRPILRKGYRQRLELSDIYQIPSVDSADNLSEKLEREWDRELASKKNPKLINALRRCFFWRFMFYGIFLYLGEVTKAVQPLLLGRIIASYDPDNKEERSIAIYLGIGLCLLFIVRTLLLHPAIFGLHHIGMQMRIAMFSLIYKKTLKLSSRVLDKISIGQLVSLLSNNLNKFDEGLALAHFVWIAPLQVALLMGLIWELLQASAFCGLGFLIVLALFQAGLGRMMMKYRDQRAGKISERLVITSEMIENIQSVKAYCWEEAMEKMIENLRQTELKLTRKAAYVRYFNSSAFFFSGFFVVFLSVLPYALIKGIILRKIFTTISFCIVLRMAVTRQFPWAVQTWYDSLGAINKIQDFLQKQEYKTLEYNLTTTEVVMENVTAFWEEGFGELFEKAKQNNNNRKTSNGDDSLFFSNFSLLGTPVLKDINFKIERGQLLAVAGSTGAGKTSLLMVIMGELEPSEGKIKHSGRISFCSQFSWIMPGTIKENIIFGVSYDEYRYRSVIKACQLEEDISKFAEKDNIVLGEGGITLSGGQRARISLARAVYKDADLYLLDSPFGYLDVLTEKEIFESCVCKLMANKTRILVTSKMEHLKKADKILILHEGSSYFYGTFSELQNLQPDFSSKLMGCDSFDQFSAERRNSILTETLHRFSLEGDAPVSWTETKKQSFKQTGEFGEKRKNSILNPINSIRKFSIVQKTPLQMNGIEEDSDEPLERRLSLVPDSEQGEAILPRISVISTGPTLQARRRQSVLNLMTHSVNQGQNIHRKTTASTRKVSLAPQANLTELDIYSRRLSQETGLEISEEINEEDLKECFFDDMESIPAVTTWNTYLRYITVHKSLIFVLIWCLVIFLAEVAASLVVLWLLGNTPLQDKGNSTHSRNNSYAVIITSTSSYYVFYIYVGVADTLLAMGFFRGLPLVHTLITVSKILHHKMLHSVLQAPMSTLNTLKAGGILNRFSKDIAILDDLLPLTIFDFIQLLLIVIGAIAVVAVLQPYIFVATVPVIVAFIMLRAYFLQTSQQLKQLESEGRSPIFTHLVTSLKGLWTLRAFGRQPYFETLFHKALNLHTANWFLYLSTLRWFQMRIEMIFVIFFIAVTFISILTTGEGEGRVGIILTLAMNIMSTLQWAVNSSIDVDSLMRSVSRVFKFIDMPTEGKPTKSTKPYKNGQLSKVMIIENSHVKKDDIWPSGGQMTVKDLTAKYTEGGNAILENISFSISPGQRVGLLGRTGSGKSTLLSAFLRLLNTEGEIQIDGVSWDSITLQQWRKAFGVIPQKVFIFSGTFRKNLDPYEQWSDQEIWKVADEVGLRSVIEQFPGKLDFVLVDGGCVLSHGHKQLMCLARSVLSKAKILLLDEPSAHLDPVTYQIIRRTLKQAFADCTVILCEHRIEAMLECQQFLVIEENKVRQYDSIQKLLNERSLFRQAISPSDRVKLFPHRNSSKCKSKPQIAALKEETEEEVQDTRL
T2 sequence (P13569 with tags, fused parts or gaps DEL508-508): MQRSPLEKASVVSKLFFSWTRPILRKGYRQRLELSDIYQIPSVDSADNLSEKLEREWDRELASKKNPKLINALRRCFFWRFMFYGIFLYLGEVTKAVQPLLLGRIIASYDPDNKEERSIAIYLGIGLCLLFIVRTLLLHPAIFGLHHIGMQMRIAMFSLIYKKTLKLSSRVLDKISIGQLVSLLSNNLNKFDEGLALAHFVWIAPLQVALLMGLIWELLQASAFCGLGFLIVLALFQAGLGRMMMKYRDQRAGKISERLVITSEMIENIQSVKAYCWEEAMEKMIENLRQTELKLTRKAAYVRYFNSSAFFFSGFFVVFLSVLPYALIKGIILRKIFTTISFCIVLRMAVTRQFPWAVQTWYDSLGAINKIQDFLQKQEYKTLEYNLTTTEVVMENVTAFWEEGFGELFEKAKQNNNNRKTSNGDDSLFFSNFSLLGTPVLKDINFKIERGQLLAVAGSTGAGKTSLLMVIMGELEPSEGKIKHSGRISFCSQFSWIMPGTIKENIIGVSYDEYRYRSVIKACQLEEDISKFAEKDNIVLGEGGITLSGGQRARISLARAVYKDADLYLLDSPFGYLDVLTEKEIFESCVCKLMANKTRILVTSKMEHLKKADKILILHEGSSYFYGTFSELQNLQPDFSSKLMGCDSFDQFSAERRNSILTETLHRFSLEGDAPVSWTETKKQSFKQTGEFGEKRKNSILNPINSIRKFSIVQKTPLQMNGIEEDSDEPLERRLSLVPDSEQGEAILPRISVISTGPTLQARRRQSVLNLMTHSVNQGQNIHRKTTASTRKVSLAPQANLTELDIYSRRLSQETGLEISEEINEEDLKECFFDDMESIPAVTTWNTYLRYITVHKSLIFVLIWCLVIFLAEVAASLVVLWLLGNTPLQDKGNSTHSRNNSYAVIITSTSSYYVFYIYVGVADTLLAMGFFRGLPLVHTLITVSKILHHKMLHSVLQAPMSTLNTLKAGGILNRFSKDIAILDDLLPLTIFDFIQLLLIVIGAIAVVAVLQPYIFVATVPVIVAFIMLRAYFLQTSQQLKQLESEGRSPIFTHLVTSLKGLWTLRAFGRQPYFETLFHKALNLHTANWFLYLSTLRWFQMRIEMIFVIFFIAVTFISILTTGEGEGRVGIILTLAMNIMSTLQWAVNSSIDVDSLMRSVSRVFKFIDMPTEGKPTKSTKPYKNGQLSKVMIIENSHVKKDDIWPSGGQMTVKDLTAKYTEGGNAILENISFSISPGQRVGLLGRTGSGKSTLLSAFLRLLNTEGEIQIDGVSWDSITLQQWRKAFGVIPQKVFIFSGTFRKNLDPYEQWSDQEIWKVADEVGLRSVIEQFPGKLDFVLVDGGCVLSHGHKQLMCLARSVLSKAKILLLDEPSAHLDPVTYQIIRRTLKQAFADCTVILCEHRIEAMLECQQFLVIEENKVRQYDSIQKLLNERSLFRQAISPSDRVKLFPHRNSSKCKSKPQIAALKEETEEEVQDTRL

## CS(=O)(=O)Nc1ccc(C(=O)OC(Cc2c(Cl)c[n+]([O-])cc2Cl)c2ccc(OC(F)F)c(OCC3CC3)c2)cc1OCC1CC1 (stereo not drawn) [CHF6001, 3-Cyclopropylmethoxy-4-methanesulfonylamino-benzoic acid 1-(3-cyclopropylmethoxy-4-difluoromethoxy-phenyl)-2-(3,5-dichloro-1-oxy-pyridin-4-yl)-ethyl ester]
CFTR channel
  trans-epithelial electric resistance normalized to DMSO (set to 100%): decrease the electric resistance
CFTR [1]
  presence of CFTR by immunofluorescence: increase the presence of CFTR
CFTR [2]
  total presence of CFTR protein (band C/actin): up-regulation of CFTR protein

## O=C(Nc1c(Cl)cncc1Cl)c1ccc(OC(F)F)c(OCC2CC2)c1 [Roflumilast, 3-cyclo-propylmethoxy-4-difluoromethoxy-N-[3,5-di-chloropyrid-4-yl]-benzamide]
CFTR channel
  trans-epithelial electric resistance normalized to DMSO (set to 100%): decrease the electric resistance
CFTR [1]
  presence of CFTR by immunofluorescence: increase the presence of CFTR
CFTR [2]
  total presence of CFTR protein (band C/actin): up-regulation of CFTR protein
